Laboratory results published in patent publication US20240216304A1, “CAPSAICIN AND TRPV1 MODULATOR COMPOSITIONS AND METHODS OF USE THEREOF” (The Children's Hospital of Philadelphia, priority 2020, published 2024).

Tests used:
Diabetic Mice = assay: Capsaicinoid-fatty acid combinations on glucose tolerance and insulin sensitivity in diabetic mice; format: in vivo; settings: administered in the absence of OA (capsaicin 5 mg/kg, DHC 1 mg/kg); groups discontinued after first 72 hours (6 doses)
Description: Eighty-four male db db mice (BKS. CG-Dock7m+/+LeprdbJ) are randomized at 8 weeks of age to produce seven equivalent groups (n=12/group) with respect to 4-hour fasting glucose and body weight. Treatment groups are as follow: Control (untreated); Capsaicin (5 mg/kg)+OA (615 mg/kg); DHC (1 mg/kg)+OA (615 mg/kg); capsaicin (10 mg/kg)+OA (615 mg/kg); DHC (10 mg/kg)+OA (615 mg/kg); capsaicin (5 mg/kg); DHC (1 mg/kg). Animals are administered the formulations via oral gavage in a volume of 5 mL/kg) twice daily for 28 days. Blood glucose is measured following a four hour fast on days 0, 7, 14, 21 and 28. On day 28, an oral glucose tolerance test (OGTT) is performed following a four-hour fast. Glucose (1.2 g/kg) is dosed at […], and glucose and insulin are measured at t=−60 minutes, 0, 15, 30, 60, 120, 180 and 240 minutes.

TRPV1 = biological target: T1, TRPV1 (Homo sapiens, UniProt Q8NER1); assay: Capsaicinoid-induced TRPV1 signaling in DRG neurons, Fluo-8 calcium imaging; format: cell-based; settings: for treated neurons responding: agonist alone
T1 construct: TRPV1 primary signaling in Human dorsal root ganglia (DRG) neurons in culture; endogenous in cells; host or cells: human dorsal root ganglia (DRG) neurons in culture
Source text: The aim of this study was to evaluate the effects of oleic acid on antagaonizing capsaicinoid-induced TRPV1 primary signaling in Human dorsal root ganglia (DRG) neurons in culture. Human DRG neurons were studied in a perfusion system using the calcium dye Fluo-8. Detection of intracellular calcium transients was accomplished by measuring the changes in the fluorescence intensity of the Fluo-8 calcium indicator upon excitation at 480 nm and recording of the emitted signal at 520 nm using a pcoEDGE sCMOS camera mounted on an inverted microscope (Olympus IX71). The following protocol was utilized to study the effects of the fatty acids on capsaicin and DHC-stimulated calcium currents.

T1 sequence (Q8NER1 whole entry): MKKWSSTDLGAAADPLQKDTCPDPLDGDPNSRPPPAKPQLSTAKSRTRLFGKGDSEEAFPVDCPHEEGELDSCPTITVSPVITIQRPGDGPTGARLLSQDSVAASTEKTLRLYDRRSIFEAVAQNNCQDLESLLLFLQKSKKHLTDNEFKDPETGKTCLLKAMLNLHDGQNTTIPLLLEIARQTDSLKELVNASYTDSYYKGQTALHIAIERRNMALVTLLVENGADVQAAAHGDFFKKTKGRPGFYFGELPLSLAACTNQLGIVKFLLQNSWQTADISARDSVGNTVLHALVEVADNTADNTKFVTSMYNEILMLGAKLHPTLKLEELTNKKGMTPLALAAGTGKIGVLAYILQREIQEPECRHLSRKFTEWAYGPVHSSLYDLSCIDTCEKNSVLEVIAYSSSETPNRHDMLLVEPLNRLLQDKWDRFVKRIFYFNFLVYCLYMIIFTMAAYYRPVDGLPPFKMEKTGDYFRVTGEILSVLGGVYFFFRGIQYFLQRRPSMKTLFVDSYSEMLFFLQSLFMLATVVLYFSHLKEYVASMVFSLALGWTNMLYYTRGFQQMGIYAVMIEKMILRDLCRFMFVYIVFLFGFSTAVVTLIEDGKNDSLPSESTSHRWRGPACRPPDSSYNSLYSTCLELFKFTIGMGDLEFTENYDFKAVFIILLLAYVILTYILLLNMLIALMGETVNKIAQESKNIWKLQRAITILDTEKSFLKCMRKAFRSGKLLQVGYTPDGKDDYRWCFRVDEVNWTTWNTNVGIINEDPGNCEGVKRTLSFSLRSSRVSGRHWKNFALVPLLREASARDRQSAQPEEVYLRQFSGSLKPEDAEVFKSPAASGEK

SMILES | tolerability (Diabetic Mice) | treated neurons responding (TRPV1) [%] | maximal calcium (ΔF/F0) signal (TRPV1; DHC alone) | maximal calcium (ΔF/F0) signal (TRPV1; DHC as agonist, with oleic acid administration) | neurons responding (TRPV1; DHC as agonist, with oleic acid administration (DHC alone 59%)) [%] | neurons responding (TRPV1; capsaicin as agonist, with oleic acid administration (capsaicin alone 74%)) [%]
COc1cc(CNC(=O)CCCC/C=C/C(C)C)ccc1O [capsaicin, (6E)-N-[(4-Hydroxy-3-methoxyphenyl)methyl]-8-methylnon-6-enamide] | poorly tolerated | 74 | – | – | – | –
COc1cc(CNC(=O)CCCCCCC(C)C)ccc1O [DHC, dihydrocapsaicin] | poorly tolerated | 59 | 4.57 | – | – | –
CCCCCCCC/C=C\CCCCCCCC(=O)O [oleic acid] | – | – | – | 2.81 | 38 | 51
